Activity calls are given as the source filed them. No cut-off for these calls is given here.
What was measured:
Format in all cases: functional, organism-based
[1] = tested on: Saccharomyces cerevisiae; assay: Antimicrobial activity against glc7-129 allele containing Saccharomyces cerevisiae harboring cdc28-as transfected with 2 uM expression vector TEplac195 at 25 nM using deletion pool construction
[2] = tested on: Saccharomyces cerevisiae; assay: Antimicrobial activity against glc7-127 allele containing Saccharomyces cerevisiae harboring cdc28-as transfected with 2 uM expression vector TEplac195 at 25 nM using deletion pool construction
[3] = tested on: Saccharomyces cerevisiae; assay: Suppression of TUB1 gene in Saccharomyces cerevisiae harboring cdc28-as at 15 uM using deletion pool construction by TAG microarray
[4] = tested on: Saccharomyces cerevisiae; assay: Suppression of TUB2 gene in Saccharomyces cerevisiae harboring cdc28-as transfected with 2 uM expression vector TEplac195 at 33.2 uM using multicopy pool construction by TAG microarray
[5] = tested on: Saccharomyces cerevisiae; assay: Suppression of TUB2 gene in Saccharomyces cerevisiae harboring cdc28-as at 15 uM using deletion pool construction by TAG microarray
[6] = tested on: Saccharomyces cerevisiae; assay: Suppression of TUB1 gene in Saccharomyces cerevisiae harboring cdc28-as transfected with 2 uM expression vector TEplac195 at 33.2 uM using multicopy pool construction by TAG microarray
[7] = tested on: Saccharomyces cerevisiae; assay: Suppression of […] gene in Saccharomyces cerevisiae harboring cdc28-as transfected with 2 uM expression vector TEplac195 at 5 uM using multicopy pool construction by TAG microarray
[8] = tested on: Saccharomyces cerevisiae; assay: Suppression of […] gene in Saccharomyces cerevisiae harboring cdc28-as at 2.5 uM using deletion pool construction by TAG microarray
[9] = tested on: Saccharomyces cerevisiae; assay: Antimicrobial activity against glc7-129 allele containing Saccharomyces cerevisiae harboring cdc28-as transfected with 2 uM expression vector TEplac195 at 2.5 nM using deletion pool construction
[10] = tested on: Saccharomyces cerevisiae; assay: Antimicrobial activity against glc7-127 allele containing Saccharomyces cerevisiae harboring cdc28-as transfected with 2 uM expression vector TEplac195 at 2.5 nM using deletion pool construction
[11] = tested on: Saccharomyces cerevisiae; assay: Suppression of CSH1 gene in Saccharomyces cerevisiae harboring cdc28-as transfected with 2 uM expression vector TEplac195 at 500 nM using multicopy pool construction by TAG microarray
[12] = tested on: Saccharomyces cerevisiae; assay: Suppression of CDC28 gene in Saccharomyces cerevisiae harboring cdc28-as transfected with 2 uM expression vector TEplac195 at 500 nM using multicopy pool construction by TAG microarray
[13] = tested on: Saccharomyces cerevisiae; assay: Suppression of IFA38 gene in Saccharomyces cerevisiae harboring cdc28-as transfected with 2 uM expression vector TEplac195 at 500 nM using multicopy pool construction by TAG microarray
[14] = tested on: Saccharomyces cerevisiae; assay: Suppression of TOS1 gene in Saccharomyces cerevisiae harboring cdc28-as transfected with 2 uM expression vector TEplac195 at 500 nM using multicopy pool construction by TAG microarray
[15] = tested on: Saccharomyces cerevisiae; assay: Suppression of HEM1 gene in Saccharomyces cerevisiae harboring cdc28-as at 0.002% using deletion pool construction by TAG microarray
[16] = tested on: Saccharomyces cerevisiae; assay: Suppression of HEM1 gene in Saccharomyces cerevisiae harboring cdc28-as transfected with 2 uM expression vector TEplac195 at 0.015% using multicopy pool construction by TAG microarray

SMILES: COC[C@@H]([C@H](O)[C@H](O)C(=O)NCC[C@H](C)c1nc(/C=C/C[C@@H]2O[C@]3(C[C@@H](O)[C@@H]2C)O[C@H]([C@H](C[C@H](O)[C@H](C)[C@H](O)[C@H](C)/C=C(C)/C(C)=C/C=C/C(C)=C\C#N)OC)[C@H](OP(=O)(O)O)C3(C)C)co1)N(C)C
- Activity [1]: Active
- Activity [2]: inactive

SMILES: COC(=O)Nc1nc2cc(C(=O)c3cccs3)ccc2[nH]1
- Activity [3]: Active
- Activity [4]: Active
- Activity [5]: Active
- Activity [6]: Active

SMILES: C/C1=C/C(=O)O[C@@H]2C[C@@H](CC[C@H](C)/C=C\C=C\CC1)O[C@@](O)([C@@H]1CSC(=O)N1)C2
- Activity [7]: Active
- Activity [8]: Active

SMILES: C[C@@]12C(=O)OC(=O)[C@]1(C)[C@H]1CC[C@@H]2O1
- Activity [9]: inactive
- Activity [10]: Active

SMILES: CC(C)(C)n1nc(Cc2cccc3ccccc23)c2c(N)ncnc21
- Activity [11]: Active
- Activity [12]: Active
- Activity [13]: Active
- Activity [14]: Active

SMILES: COS(C)(=O)=O
- Activity [15]: Active
- Activity [16]: Active

Reference: ChEMBL document CHEMBL1250447, “An integrated platform of genomic assays reveals small-molecule bioactivities” (Nat Chem Biol, 2008)
